# Source: ChEMBL document CHEMBL1201862, “PubChem BioAssay data set” (2004)
# “And” between values parts separate entries of the source, which are not always exact repeats. Equal entries are not always repeated. The source made the active and inactive calls.
# Experiments:
# [1] = biological target: FAD-linked sulfhydryl oxidase ALR (Homo sapiens, UniProt P55789); assay: ALR-catalysed DTT oxidation blockers – biochemical, H2O2 detection, luminescence, cherry-pick, dose response (AID 493248)
# Cytochrome P450 1A2 = biological target: T1, Cytochrome P450 1A2 (Homo sapiens, UniProt P05177);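 note: PubChem cytochrome P450 panel assay, CYP1A2 panel member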
# T1 sequence (P05177 whole entry): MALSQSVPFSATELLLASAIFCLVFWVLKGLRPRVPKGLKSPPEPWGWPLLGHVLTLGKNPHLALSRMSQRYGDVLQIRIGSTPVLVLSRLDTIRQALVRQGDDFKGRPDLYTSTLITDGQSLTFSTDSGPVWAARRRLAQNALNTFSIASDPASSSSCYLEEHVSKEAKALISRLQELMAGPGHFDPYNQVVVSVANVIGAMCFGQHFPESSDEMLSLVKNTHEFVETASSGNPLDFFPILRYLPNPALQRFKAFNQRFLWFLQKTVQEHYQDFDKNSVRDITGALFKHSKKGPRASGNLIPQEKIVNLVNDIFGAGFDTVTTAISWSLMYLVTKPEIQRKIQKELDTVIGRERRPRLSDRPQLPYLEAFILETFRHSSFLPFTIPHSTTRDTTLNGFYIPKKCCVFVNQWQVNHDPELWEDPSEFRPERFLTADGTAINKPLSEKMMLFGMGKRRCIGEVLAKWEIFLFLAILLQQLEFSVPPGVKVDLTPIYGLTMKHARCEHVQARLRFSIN
# Cytochrome P450 2D6 = Cytochrome P450 2D6 (Homo sapiens, UniProt P10635);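 note: CYP2D6 member of a cytochrome P450 panel assay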
# [2] = biological target: Luciferin 4-monooxygenase (Photinus pyralis, UniProt P08659); assay: inhibition of purified Photinus pyralis luciferase – biochemical, luminescence, dose response (AID 1891)
# [3] = Luminescence Cell-Based Dose Confirmation HTS to Identify Inhibitors of Platelet Dense Granule Release. [Related pubchem assays: 1663 (Primary HTS), 1678 (Summary of Project)]; assay type: functional
# Cytochrome P450 3A4 = Cytochrome P450 3A4 (Homo sapiens, UniProt P08684);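 note: CYP3A4 tested as one member of a cytochrome P450 panel screen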
# Cytochrome P450 2C9 = Cytochrome P450 2C9 (Homo sapiens, UniProt P11712)
# H4 = assay: Luminescence Cell-Based Dose Response HTS to Identify Activators of 5'UTR Stem-Loop Driven Prion Protein mRNA Translation in H4 Neuroglioblastoma Cells. [Related pubchem assays: 1829 (Project Summary), 1814 (Primary HTS)]; assay type: functional; details: Homo sapiens
# [4] = Luminescence Cell-Based Dose Response HTS to Identify Activators of Luciferase Translation or Activity in H4 […] Cells. [Related pubchem assays: 1829 (Project Summary), 1814 (Primary HTS)]; assay type: functional
# [5] = Luminescence Cell-Based Dose Confirmation HTS to Identify Activators of 5'UTR Stem-Loop Driven Alpha-Synuclein mRNA Translation in H4 Neuroglioblastoma Cells. [Related pubchem assays: 1829 (Project Summary), 1814 (Primary HTS)]; assay type: functional
# Cytochrome P450 2C19 = Cytochrome P450 2C19 (Homo sapiens, UniProt P33261); assay: Cytochrome panel assay with activity outcomes. Panel member name: p450-cyp2c19 Compounds with AC50 equal or less than 10 uM are considered active; assay type: functional
# [6] = viability of uninfected HEp-2 cells – cell-based, HTS, cytotoxicity control for RSV inhibitor project, dose response (AID 2410); assay type: functional; details: human respiratory syncytial virus
# [7] = biological target: T2, Rac GTPase-activating protein 1 (Homo sapiens, UniProt Q9H0H5); assay: blockers of MgcRacGAP-driven Rac1 GTP hydrolysis – biochemical, ADP Hunter fluorescence, primary and confirmatory, confirmation (AID 624330); assay type: functional
# T2 sequence (Q9H0H5 whole entry): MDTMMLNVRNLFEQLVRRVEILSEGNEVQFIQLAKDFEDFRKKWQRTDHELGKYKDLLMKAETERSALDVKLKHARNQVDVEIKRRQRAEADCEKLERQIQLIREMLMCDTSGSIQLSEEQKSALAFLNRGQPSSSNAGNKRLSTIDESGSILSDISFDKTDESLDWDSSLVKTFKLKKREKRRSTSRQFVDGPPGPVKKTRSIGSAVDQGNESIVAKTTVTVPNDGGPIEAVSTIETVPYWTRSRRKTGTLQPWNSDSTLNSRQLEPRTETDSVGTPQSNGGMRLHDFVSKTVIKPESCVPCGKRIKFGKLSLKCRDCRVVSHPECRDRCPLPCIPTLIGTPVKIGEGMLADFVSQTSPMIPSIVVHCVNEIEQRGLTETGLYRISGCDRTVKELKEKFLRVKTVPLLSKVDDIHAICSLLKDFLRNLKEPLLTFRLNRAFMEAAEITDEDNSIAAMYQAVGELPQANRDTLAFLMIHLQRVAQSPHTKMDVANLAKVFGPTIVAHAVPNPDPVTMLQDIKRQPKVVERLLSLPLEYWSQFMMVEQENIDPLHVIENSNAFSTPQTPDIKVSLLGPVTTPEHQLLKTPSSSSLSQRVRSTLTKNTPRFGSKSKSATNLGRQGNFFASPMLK
# Sequence of Cytochrome P450 2D6 (P10635 whole entry): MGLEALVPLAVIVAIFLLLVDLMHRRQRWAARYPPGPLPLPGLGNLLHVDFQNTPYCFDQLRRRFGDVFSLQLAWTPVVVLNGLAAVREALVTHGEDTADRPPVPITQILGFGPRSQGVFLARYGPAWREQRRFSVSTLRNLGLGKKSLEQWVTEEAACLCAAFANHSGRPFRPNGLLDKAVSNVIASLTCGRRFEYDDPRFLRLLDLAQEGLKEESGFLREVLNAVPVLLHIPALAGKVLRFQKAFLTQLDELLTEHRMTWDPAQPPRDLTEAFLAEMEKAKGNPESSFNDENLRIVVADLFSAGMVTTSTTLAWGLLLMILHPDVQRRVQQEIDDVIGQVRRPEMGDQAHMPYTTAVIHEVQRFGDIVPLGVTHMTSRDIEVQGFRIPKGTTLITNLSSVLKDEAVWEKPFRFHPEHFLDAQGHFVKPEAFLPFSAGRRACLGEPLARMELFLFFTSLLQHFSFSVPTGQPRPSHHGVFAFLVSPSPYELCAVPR
# Sequence of Cytochrome P450 2C19 (P33261 whole entry): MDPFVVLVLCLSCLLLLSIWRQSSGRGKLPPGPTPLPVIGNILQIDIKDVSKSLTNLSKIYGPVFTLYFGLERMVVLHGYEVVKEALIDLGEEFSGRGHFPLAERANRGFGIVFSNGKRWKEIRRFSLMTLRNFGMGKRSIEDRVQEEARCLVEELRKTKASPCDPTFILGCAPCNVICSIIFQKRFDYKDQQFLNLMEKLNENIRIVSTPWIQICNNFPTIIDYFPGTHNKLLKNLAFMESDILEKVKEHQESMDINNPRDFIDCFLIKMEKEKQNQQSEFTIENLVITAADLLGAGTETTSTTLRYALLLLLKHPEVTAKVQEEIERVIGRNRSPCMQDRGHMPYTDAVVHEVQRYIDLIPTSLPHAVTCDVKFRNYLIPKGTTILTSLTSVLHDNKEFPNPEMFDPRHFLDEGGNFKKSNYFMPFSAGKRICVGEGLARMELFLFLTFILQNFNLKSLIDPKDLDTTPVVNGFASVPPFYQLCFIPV
# Sequence of FAD-linked sulfhydryl oxidase ALR (P55789 whole entry): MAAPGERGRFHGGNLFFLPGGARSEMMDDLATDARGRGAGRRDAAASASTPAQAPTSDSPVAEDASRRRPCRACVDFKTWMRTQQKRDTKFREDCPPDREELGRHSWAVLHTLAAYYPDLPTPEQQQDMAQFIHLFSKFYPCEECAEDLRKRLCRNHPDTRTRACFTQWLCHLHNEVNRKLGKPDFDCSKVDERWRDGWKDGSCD
# Sequence of Cytochrome P450 3A4 (P08684 whole entry): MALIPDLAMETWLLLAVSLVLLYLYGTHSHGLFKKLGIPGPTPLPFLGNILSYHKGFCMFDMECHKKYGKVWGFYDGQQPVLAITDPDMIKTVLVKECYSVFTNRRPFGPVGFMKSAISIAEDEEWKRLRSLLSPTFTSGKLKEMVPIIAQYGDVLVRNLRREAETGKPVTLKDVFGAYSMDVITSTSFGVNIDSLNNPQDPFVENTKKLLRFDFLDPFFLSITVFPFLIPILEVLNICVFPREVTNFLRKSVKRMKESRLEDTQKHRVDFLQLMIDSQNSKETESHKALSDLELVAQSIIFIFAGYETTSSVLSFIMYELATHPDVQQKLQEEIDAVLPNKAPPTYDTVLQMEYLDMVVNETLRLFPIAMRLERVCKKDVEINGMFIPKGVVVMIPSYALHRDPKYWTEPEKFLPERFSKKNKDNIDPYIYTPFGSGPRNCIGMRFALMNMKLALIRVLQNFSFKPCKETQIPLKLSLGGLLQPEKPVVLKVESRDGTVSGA
# Sequence of Luciferin 4-monooxygenase (P08659 whole entry): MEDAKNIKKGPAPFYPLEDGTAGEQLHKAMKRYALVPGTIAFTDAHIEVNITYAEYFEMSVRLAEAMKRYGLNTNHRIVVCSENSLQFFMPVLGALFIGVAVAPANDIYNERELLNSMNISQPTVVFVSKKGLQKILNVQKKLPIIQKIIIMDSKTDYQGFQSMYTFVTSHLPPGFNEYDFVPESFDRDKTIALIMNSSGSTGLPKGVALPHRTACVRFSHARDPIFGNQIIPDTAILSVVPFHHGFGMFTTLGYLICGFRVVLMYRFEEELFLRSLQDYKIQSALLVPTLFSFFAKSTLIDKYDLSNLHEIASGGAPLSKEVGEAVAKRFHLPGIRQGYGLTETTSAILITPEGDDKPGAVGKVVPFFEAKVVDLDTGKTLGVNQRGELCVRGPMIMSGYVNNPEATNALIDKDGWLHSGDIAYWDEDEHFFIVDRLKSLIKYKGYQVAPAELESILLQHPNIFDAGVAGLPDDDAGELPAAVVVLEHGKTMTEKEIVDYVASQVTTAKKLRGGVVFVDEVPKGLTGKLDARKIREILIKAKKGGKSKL
# Sequence of Cytochrome P450 2C9 (P11712 whole entry): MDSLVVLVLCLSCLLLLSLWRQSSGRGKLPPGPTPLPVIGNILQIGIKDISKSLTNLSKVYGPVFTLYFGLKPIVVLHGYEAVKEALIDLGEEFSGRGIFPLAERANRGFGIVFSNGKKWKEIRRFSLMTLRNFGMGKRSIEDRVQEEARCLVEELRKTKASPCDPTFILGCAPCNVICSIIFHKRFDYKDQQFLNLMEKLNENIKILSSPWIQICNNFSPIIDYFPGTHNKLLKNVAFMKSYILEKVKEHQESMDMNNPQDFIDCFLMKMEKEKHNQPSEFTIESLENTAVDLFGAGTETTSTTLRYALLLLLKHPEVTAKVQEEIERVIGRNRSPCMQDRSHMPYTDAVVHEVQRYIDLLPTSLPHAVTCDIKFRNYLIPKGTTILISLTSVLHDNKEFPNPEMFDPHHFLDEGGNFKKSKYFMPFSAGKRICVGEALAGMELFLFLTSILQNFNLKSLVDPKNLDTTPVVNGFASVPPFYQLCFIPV
structure (smiles),measurement,setting,value
CC(C)=NNc1nc(-c2ccc(N3C(=O)CCC3=O)cc2)cs1,AC50,[1],0.119 µM (active)
Cc1cccc(NC(=O)CSc2nc(COc3ccccc3)nc3ccccc23)c1C,AC50,Cytochrome P450 1A2,12.6 µM (inconclusive)
same,AC50,Cytochrome P450 2D6,12.6 µM (inconclusive)
CC1CCC(NC(=O)c2ccc(CS(=O)(=O)Cc3ccccc3F)o2)CC1 (stereo not given),EC50,[2],> 112 µM (not active)
same,EC50,[3],> 112 µM (not active)
same,AC50,Cytochrome P450 1A2,0.251 µM (inconclusive)
same,AC50,Cytochrome P450 3A4,14.1 µM (inconclusive)
same,AC50,Cytochrome P450 2D6,35.5 µM (inconclusive)
same,AC50,Cytochrome P450 2C9,17.8 µM (inconclusive)
O=C(CN1C(=O)NC2(CCCC2)C1=O)Nc1cc(Cl)ccc1N1CCCC1,AC50,[1],0.244 µM (active)
N#C/C(=C\c1c[nH]c2ccccc12)c1nnc2n1CCCCC2,EC50,[2],> 112 µM (not active)
same,EC50,[3],> 112 µM (not active)
COc1ccc(C(=O)N2CCN=C2SCc2cccnc2)c(OC)c1,AC50,[1],0.067 µM (active)
Cc1ccc(Oc2nc3ccccn3c(=O)c2/C=C(\C#N)C(=O)NC2CCS(=O)(=O)C2)c(C)c1 (stereo not given),EC50,[2],> 112 µM (not active)
same,EC50,[3],6.03 µM (active)
Cc1cccc(NC(=O)c2cnc3sccn3c2=O)n1,EC50,H4,63.9 µM (active)
same,EC50,[4],32.9 µM (active)
same,EC50,[5],0.125 µM (active)
C[C@H](CN(C)C)C(O)(c1ccccc1)c1ccccc1,AC50,Cytochrome P450 2C19,inconclusive
same,AC50,Cytochrome P450 2D6,3.98 µM (inconclusive)
O=C(CN1CCN(c2ccccc2O)CC1)NCCCc1ccccc1,AC50,[1],0.301 µM (active)
CCCn1c(S)nnc1C(C)NC(=O)c1ccccc1 (stereo not given),AC50,[1],3 µM (active)
CCCSC1=C(C#N)C(c2cccnc2)C(C(=O)OCC)=C(c2ccccc2)N1 (stereo not given),AC50,Cytochrome P450 2D6,39.8 µM (inconclusive)
Oc1c2nc3ccccc3c-2ncn1CCC1=CCCCC1,EC50,H4,1.72 µM (active)
same,EC50,[4],46.6 µM (active)
same,EC50,[5],43.3 µM (active)
O=C(Nc1ccc(Nc2ccccc2)cc1)c1ccco1,CC50,[6],45.1 µM (active)
same,AC50,[1],5.94 µM (active)
COc1ccc2c(c1)C(=O)CC(c1ccc3c(c1)OCCO3)O2 (stereo not given),EC50,H4,13.9 µM (active)
same,EC50,[4],42 µM (active)
same,EC50,[5],7.88 µM (active)
CCN(CC)CCNC(=O)C(C)c1nn(C)c(=O)c2ccccc12 (stereo not given),AC50,Cytochrome P450 2D6,20 µM (inconclusive)
CCOC(=O)C(CC)n1cnc2c(nnn2-c2ccc(F)cc2)c1=O (stereo not given),EC50,[2],> 112 µM (not active)
same,EC50,[3],> 112 µM (not active)
O=C(O)c1nc2ccccc2nc1C(=O)O,EC50,H4,> 120 µM (not active)
same,EC50,[4],25.5 µM (active)
same,EC50,[5],11.1 µM (active)
COC(=O)C1CC1C(NC(=O)[C@H]1CCCCN1)c1ccccc1 (stereo not given in full),AC50,Cytochrome P450 2D6,20 µM (inconclusive)
same,AC50,Cytochrome P450 2C9,20 µM (inconclusive)
O=C(COC(=O)c1ccc2[nH]c3c(c2c1)CCCC3)Nc1ccccc1,EC50,H4,> 120 µM (not active)
same,EC50,[4],41.9 µM (active)
same,EC50,[5],5.12 µM (active)
CC12CCC(C(=O)NNc3ccccc3)(C(=O)C1=O)C2(C)C (stereo not given),EC50,[2],> 112 µM (not active)
same,EC50,[3],> 112 µM (not active)
CC(Cc1ccccc1)C(=O)NCc1ccccn1 (stereo not given),AC50,Cytochrome P450 2D6,39.8 µM (inconclusive)
N/C(CSS(=O)(=O)O)=N\[C@@H]1C[C@H]2CC[C@@H]1C2,AC50,Cytochrome P450 2C19,inconclusive
same,AC50,Cytochrome P450 1A2,10 µM (inconclusive)
same,AC50,Cytochrome P450 2D6,7.94 µM (inconclusive)
same,AC50,Cytochrome P450 2C9,7.94 µM (inconclusive)
Cc1ccc(C)c(NC(=O)c2cc(S(=O)(=O)N3CCOCC3)cn2C)c1,EC50,[2],> 112 µM (not active)
same,EC50,[3],> 112 µM (not active)
COc1ccccc1CNc1nc(-c2cccnc2)nc2ccccc12,AC50,Cytochrome P450 3A4,1.26 µM (inconclusive)
same,AC50,Cytochrome P450 2D6,25.1 µM (inconclusive)
Cn1c(-c2ccc3c(c2)OCO3)cnc1NCc1cccc(O)c1,AC50,[1],2.49 µM (active)
O=C(Cn1c(=S)nc2ccccn21)N1CCc2ccccc2C1,EC50,H4,10.3 µM (active)
same,EC50,[4],30.2 µM (active)
same,EC50,[5],5.67 µM (active)
C=CCn1c(S)nnc1C(C)NC(=O)c1cccc(C)c1 (stereo not given),AC50,[1],4.01 µM (active)
COc1ccc(-c2[nH]nc(C)c2-c2ccccc2OC)c(O)c1,AC50,[1],< 0.005 µM (active)
O=C(N/N=C\c1cccc(O)c1)c1ccncc1,AC50,Cytochrome P450 2D6,3.16 µM (inconclusive)
CSc1nnc2c(n1)OC(C)N(C(=O)c1ccccc1)c1ccccc1-2 (stereo not given),EC50,H4,> 120 µM (not active)
same,AC50,Cytochrome P450 1A2,10 µM (inconclusive)
same,EC50,[4],> 120 µM (not active)
same,AC50,Cytochrome P450 2C9,31.6 µM (inconclusive)
same,EC50,[5],15.4 µM (active)
CC(C(=O)Nc1ccccc1C(F)(F)F)N1CCN(C)CC1 (stereo not given),IC50,[7],163 µM (active)
CCN(C(=O)COC(=O)/C=C/c1cnc2ccccc2n1)c1ccccc1,EC50,H4,> 120 µM (not active)
same,EC50,[4],0.49 µM (active)
same,EC50,[5],> 120 µM (not active)
Cn1c(C(=O)N2COCC2(C)C)cc2c(=O)n3ccccc3nc21,EC50,H4,61.7 µM (active)
same,EC50,[4],12 µM (active)
same,AC50,Cytochrome P450 2C9,5.01 µM (inconclusive)
same,EC50,[5],17.2 µM (active)
Cc1cnc(NC(=O)CN2CCN(c3ccccc3F)CC2)s1,IC50,[7],150 µM (active)
COc1ccc(-n2c(=O)c(-c3ccccc3)nc3cncnc32)cc1,AC50,Cytochrome P450 2C19; read-out: AC50,39.8 µM (inconclusive)
same,AC50,Cytochrome P450 3A4,15.8 µM (inconclusive)
same,AC50,Cytochrome P450 2D6,25.1 µM (inconclusive)
COC(=O)C1=C2SC(C)C(=O)N2C(N)=C(C#N)C1c1ccc(OC)c(OC)c1 (stereo not given),EC50,[2],> 112 µM (not active)
same,EC50,[3],> 112 µM (not active)
CCOc1cc(N2CCOCC2)c(OCC)cc1NCC(=O)N1CCN(Cc2ccccc2)CC1,IC50,[7],64.2 µM (active)
O=C1CC(NCCC2=CCCCC2)C(=O)N1c1cccc(Cl)c1Cl (stereo not given),AC50,Cytochrome P450 1A2,15.8 µM (inconclusive)
same,AC50,Cytochrome P450 3A4,15.8 µM (inconclusive)
same,AC50,Cytochrome P450 2D6,15.8 µM (inconclusive)
CC1CCC(NC(=O)c2cc3c(=O)n(C)c4ccccc4c3n2C)CC1 (stereo not given),EC50,H4,> 120 µM (not active)
same,EC50,[4],14.3 µM (active)
same,EC50,[5],7.84 µM (active)
CCN(CCNC(=O)C1CCN(S(=O)(=O)c2cccc3nsnc23)CC1)c1ccccc1,AC50,[1],4.69 µM (active)
O=C(CN1CCCCCC1)Nc1nc2ccccc2s1,IC50,[7],173 µM (active)
Oc1c(/C=N/c2ccc(Cl)cn2)sc2ccccc12,EC50,H4,15.5 µM (active)
same,EC50,[4],12.3 µM (active)
same,EC50,[5],15.4 µM (active)
CCN1CCN(CC(=O)N/N=C/c2cc(Br)cs2)CC1,IC50,[7],94.2 µM (active)
CSc1nc(/C=C2\C=Nc3ccccc32)c(O)n1C,EC50,[2],5.32 µM (active)
same,EC50,[3],0.812 µM (active)
same,IC50,[7],41 µM (active)
same,AC50,[1],4.03 µM (active)
Cn1c(=O)c2c(nc(OCc3ccc(Cl)cc3Cl)n2Cc2ccc(F)cc2)n(C)c1=O,EC50,[2],> 112 µM (not active)
same,EC50,[3],> 112 µM (not active)
CCN(CC)CCNC(=O)c1cc(Cl)c(N)cc1OC [METOCLOPRAMIDE],AC50,Cytochrome P450 1A2,15.8 µM (inconclusive)
same,AC50,Cytochrome P450 2D6,6.31 µM (inconclusive) and 15.8 µM (inconclusive)
